Patent US20050182051A1, “Fungicidal mixtures based on benzamidoxime derivative and a strobilurin derivative” (priority 2002, published 2005)

System: Erysiphe [syn. Blumeria] graminis forma specialis. tritici
Experiment: Activity against mildew of wheat (protective spray test on potted wheat seedlings)
Format: in vivo
Conditions: wheat seedlings cv. Kanzler, rated after 7 days
Description: The active compounds, separately or together, were formulated as a 10% emulsion in a mixture of 63% by weight of cyclohexanone and 27% by weight of emulsifier, and diluted with water to the desired concentration.
Evaluation was carried out by determining the infected leaf areas in percent. These percentages were converted into efficacies. The efficacy (w) was calculated as follows using Abbot's formula: [formula] • α corresponds to the fungal infection of the treated plants in % and • β corresponds to the fungal infection of the untreated (control) plants in %
An efficacy of 0 means that the infection level of the treated plants corresponds to that of the untreated control plants; an efficacy of 100 means that the treated plants were not infected.
The expected efficacies of the mixtures of the active compounds were determined using Colby's formula [R. S. Colby, Weeds 15, 20-22 (1967)] and compared with the observed efficacies. E =x+y−x·y/100 Colby's formula: • E expected efficacy, expressed in % of the untreated control, when using the mixture of the active compounds A and B at the concentrations a and b • x efficacy, expressed in % of the untreated control, when using active compound A at a concentration of a • y efficacy, expressed in % of the untreated control, when using active compound B at a concentration of b
Activity Against Mildew of Wheat Caused by Erysiphe [syn. Blumeria] graminis forma Specialis. tritici
Leaves of wheat seedlings of the cultivar “Kanzler” grown in pots were sprayed to runoff point with an aqueous preparation of active compound which had been prepared from a stock solution comprising 10% of active compound, 85% of cyclohexanone and 5% of emulsifier. 24 hours after the spray coating had dried on, the plants were dusted with spores of mildew of wheat (Erysiphe [syn. Blumeria] graminis forma specialis. tritici). The test plants were then placed in a greenhouse at 20-24° C. and 60-90% relative atmospheric humidity. After 7 days, the extent of the mildew development was determined visually in % infection of the entire leaf area.
The visually determined values for the percentage of infected leaf areas were converted into efficacies in % of the untreated control. An efficacy of 0 means the same degree of infection as in the untreated control, an efficacy of 100 means 0% infection. The expected efficacies for combinations of active compounds were determined using Colby's formula (Colby, S. R. (Calculating synergistic and antagonistic responses of herbicide Combinations”, Weeds, 15, p. 20-22, 1967) and compared to the observed effacacies.

[1] = 1 ppm in the spray liquor, inoculated 24 h after spraying

Measured: Efficacy in % of the untreated control

CO/C=C(/C(=O)OC)c1ccccc1Oc1cc(Oc2ccccc2C#N)ncn1 [azoxystrobin]
0%: 0.015 ppm in the spray liquor | 0.25 ppm in the spray liquor | [1]

CO/N=C(/C(=O)OC)c1ccccc1COc1ccccc1C [kresoxim-methyl]
0%: 0.06 ppm in the spray liquor | 0.25 ppm in the spray liquor | [1]

COC(=O)N(OC)c1ccccc1COc1ccn(-c2ccc(Cl)cc2)n1 [pyraclostrobin]
0%: 0.06 ppm in the spray liquor | 0.25 ppm in the spray liquor | [1]
